Patent US8841312B2, “Fused pyridine, pyrimidine and triazine compounds as cell cycle inhibitors” (Amgen Inc., priority 2007, dated 2014)

target: Cdk4/CyclinD1 (Homo sapiens (Human), UniProt P11802); assay: Cdk4 kinase inhibition assay with recombinant Cdk4/CyclinD1, Rb substrate, [33P]-ATP filter plate; format: biochemical; settings: 25 μM ATP, read-out: Cdk 4 IC50
Procedure: The Cdk4 and Cdk6 inhibitory activity of the compounds is measured with a kinase inhibition assay using recombinant Cdk4/CyclinD1 or Cdk6/CyclinD3 protein complexes. The protein substrate used in the assay is the retinoblastoma protein (Rb). The kinase reactions are carried out in a 96-well filter plate (MSDV N6B50, Millipore). […] The mixture is incubated at room temperature for 1 hour and the proteins precipitated with an equal volume of 20% TCA. The plates are washed with 10% TCA according to the manufacturer's instruction and dried at room temperature. The amount of the phosphorylated Rb is determined with a TopCount (PerkinElmer). The IC50 of a compound is determined by nonlinear regression curve fitting using software program Prism 5 (GraphPad Software).

Cdk4/CyclinD1, sequence (P11802 whole entry): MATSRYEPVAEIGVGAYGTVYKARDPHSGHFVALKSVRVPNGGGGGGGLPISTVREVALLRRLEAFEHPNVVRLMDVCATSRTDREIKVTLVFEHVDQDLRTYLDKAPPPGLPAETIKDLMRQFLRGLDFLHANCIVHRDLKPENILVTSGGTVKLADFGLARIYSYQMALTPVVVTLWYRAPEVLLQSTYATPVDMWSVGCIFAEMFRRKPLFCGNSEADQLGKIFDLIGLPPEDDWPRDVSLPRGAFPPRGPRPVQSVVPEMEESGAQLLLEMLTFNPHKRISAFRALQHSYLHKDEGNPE
Cdk4/CyclinD1, sequence (P24385 whole entry partner): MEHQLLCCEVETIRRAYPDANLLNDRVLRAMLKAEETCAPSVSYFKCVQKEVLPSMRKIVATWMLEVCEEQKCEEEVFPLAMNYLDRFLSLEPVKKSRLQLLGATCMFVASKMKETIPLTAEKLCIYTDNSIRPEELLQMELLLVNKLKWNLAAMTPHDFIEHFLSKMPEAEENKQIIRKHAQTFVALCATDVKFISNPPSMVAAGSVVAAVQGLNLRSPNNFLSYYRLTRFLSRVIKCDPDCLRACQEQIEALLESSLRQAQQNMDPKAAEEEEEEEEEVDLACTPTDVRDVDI

SMILES | IC50
CCN(CC)C1CCN(c2ccc(Nc3ncc4c5ccnc(F)c5n(C5CCCC5)c4n3)nc2)CC1 [Example 278, 9-Cyclopentyl-N-(5-(4-(diethylamino)-1-piperidinyl)-2-pyridinyl)-8-fluoro-9H-pyrido[4′,3′:4,5]pyrrolo[2,3-d]pyrimidin-2-amine] | 0.0046 µM
OC[C@@H]1CN(c2ccc(Nc3ncc4c5ccncc5n(C5CCCC5)c4n3)nc2)CCN1 [Example 198, ((2S)-4-(6-((9-cyclopentyl-9H-pyrido[4′,3′:4,5]pyrrolo[2,3-d]pyrimidin-2-yl)amino)-3-pyridinyl)-2-piperazinyl)methanol] | 0.0046 µM
Cc1nc(Nc2ncc3c4ccnc(F)c4n(C4CCCC4)c3n2)ccc1N1CCNCC1 [Example 171, 9-Cyclopentyl-8-fluoro-N-(6-methyl-5-(1-piperazinyl)-2-pyridinyl)-9H-pyrido[4′,3′:4,5]pyrrolo[2,3-d]pyrimidin-2-amine] | 0.019 µM
CN(C)C1CCN(c2ccc(Nc3ncc4c5ccncc5n(C5CCC(C)(C)CC5)c4n3)cn2)CC1 [Example 205, N-(6-(4-(dimethylamino)-1-piperidinyl)-3-pyridinyl)-9-(4,4-dimethylcyclohexyl)-9H-pyrido[4′,3′:4,5]pyrrolo[2,3-d]pyrimidin-2-amine] | 0.0026 µM
COC1CCN(c2cnc(Nc3ncc4c5ccncc5n(C5CCCC5)c4n3)cn2)C1 (stereo not drawn) [Example 87] | 0.043 µM
c1cc2c3cnc(Nc4ccc(NCC5COCCN5)nn4)nc3n(C3CCCC3)c2cn1 (stereo not drawn) [Example 100] | 0.0062 µM
C[C@H](O)Cn1c2cnccc2c2cnc(Nc3ccc(N4CCN[C@@H](C)C4)nn3)nc21 [Example 412] | 0.014 µM
CN(C)C1CCN(c2ccc(Nc3ncc4c5ccncc5n(C5CCSCC5)c4n3)nn2)CC1 [Example 275, N-(6-(4-(dimethylamino)-1-piperidinyl)-3-pyridazinyl)-9-(tetrahydro-2H-thiopyran-4-yl)-9H-pyrido[4′,3′:4,5]pyrrolo[2,3-d]pyrimidin-2-amine] | 0.017 µM
NCC1CCCN(c2ccc(Nc3ncc4c5ccncc5n(C5CCCC5)c4n3)nc2)C1 (stereo not drawn) [Example 67] | 0.0013 µM
CN1CCN(c2ccc(Nc3ncc4c5ccncc5n(C5CCCC5)c4n3)nn2)CC1 [Example 112] | 0.0059 µM
C[C@@H]1CNCCN1c1ccc(Nc2ncc3c4ccnc(F)c4n(C4CCCC4)c3n2)nc1 [Example 180, 9-Cyclopentyl-8-fluoro-N-(5-((2R)-2-methyl-1-piperazinyl)-2-pyridinyl)-9H-pyrido[4′,3′:4,5]pyrrolo[2,3-d]pyrimidin-2-amine] | 0.002 µM
CC1(C)CN(c2ccc(Nc3ncc4c5ccncc5n([C@H]5CCC[C@H]5O)c4n3)nn2)CCN1 [Example 365] | 0.159 µM
N#CC1CCN(c2ccc(Nc3ncc4c5ccncc5n(C5CCCC5)c4n3)nn2)C1 (stereo not drawn) [Example 118] | 0.0042 µM
O=C(Cc1ccc(Nc2ncc3c4ccncc4n(C4CCCC4)c3n2)nc1)N1CCOCC1 [Example 244, 9-cyclopentyl-N-(5-(2-(4-morpholinyl)-2-oxoethyl)-2-pyridinyl)-9H-pyrido[4′,3′:4,5]pyrrolo[2,3-d]pyrimidin-2-amine] | 0.011 µM
COc1nccc2c3cnc(Nc4ccc(N5CCNCC5)cn4)nc3n(C3CCC(C)(C)CC3)c12 [Example 207, 9-(4,4-dimethylcyclohexyl)-8-methoxy-N-(5-(1-piperazinyl)-2-pyridinyl)-9H-pyrido[4′,3′:4,5]pyrrolo[2,3-d]pyrimidin-2-amine] | 0.01 µM
O[C@@H]1CCN(c2ccc(Nc3ncc4c5ccncc5n([C@H]5CCC[C@H]5O)c4n3)nn2)C1 [Example 366] | 0.33 µM
CN(C)C1CCN(c2ccc(Nc3ncc4c5ccncc5n(C5CCS(=O)(=O)CC5)c4n3)nc2)CC1 [Example 280, N-(5-(4-(dimethylamino)-1-piperidinyl)-2-pyridinyl)-9-(1,1-dioxidotetrahydro-2H-thiopyran-4-yl)-9H-pyrido[4′,3′:4,5]pyrrolo[2,3-d]pyrimidin-2-amine] | 0.059 µM
C[C@H]1CN(c2ccc(Nc3ncc4c5ccncc5n([C@@H]5CCNC5)c4n3)nc2)CCN1 [Example 339] | 0.3 µM
CN(C)C1CCN(C(=O)Cc2ccc(Nc3ncc4c5ccncc5n(C5CCCC5)c4n3)nc2)CC1 [Example 243, 9-cyclopentyl-N-(5-(2-(4-(dimethylamino)-1-piperidinyl)-2-oxoethyl)-2-pyridinyl)-9H-pyrido[4′,3′:4,5]pyrrolo[2,3-d]pyrimidin-2-amine] | 0.007 µM
CNC1CCN(c2ccc(Nc3ncc4c5ccncc5n([C@@H]5CCOC5)c4n3)nn2)CC1 [Example 428] | 0.059 µM
c1cc2c3cnc(Nc4ccc(N[C@H]5CCNC5)nn4)nc3n(C3CCCC3)c2cn1 [Example 92] | 0.0088 µM
CC1(C)CCC(n2c3nc(Nc4ccc(N5CCNCC5)cn4)ncc3c3ccnc(O)c32)CC1 [Example 208, 9-(4,4-dimethylcyclohexyl)-2-((5-(1-piperazinyl)-2-pyridinyl)amino)-9H-pyrido[4′,3′:4,5]pyrrolo[2,3-d]pyrimidin-8-ol] | 0.0018 µM
CC1(C)CN(c2ccc(Nc3ncc4c5ccncc5n([C@@H]5CCOC5)c4n3)nc2)CCN1 [Example 432] | 0.017 µM
NCC1CCCN(c2ccc(Nc3ncc4c5ccncc5n(C5CCCC5)c4n3)nn2)C1 (stereo not drawn) [Example 95] | 0.0044 µM
CCN(CC)C1CCN(c2ccc(Nc3ncc4c5ccnc(OC)c5n(C5CCCC5)c4n3)nn2)CC1 [Example 283, 9-cyclopentyl-N-(6-(4-(diethylamino)-1-piperidinyl)-3-pyridazinyl)-8-methoxy-9H-pyrido[4′,3′:4,5]pyrrolo[2,3-d]pyrimidin-2-amine] | 0.011 µM
c1cc2c3cnc(Nc4ccc(N5CCC6(CCCN6)CC5)nn4)nc3n(C3CCCC3)c2cn1 [Example 232, 9-cyclopentyl-N-(6-(1,8-diazaspiro[45]dec-8-yl)-3-pyridazinyl)-9H-pyrido[4′,3′:4,5]pyrrolo[2,3-d]pyrimidin-2-amine] | 0.0072 µM
CC(=O)OCC(=O)N1CCN(c2ccc(Nc3ncc4c5ccnc(F)c5n(C5CCCC5)c4n3)nc2)CC1 [Example 194, 2-(4-(6-((9-cyclopentyl-8-fluoro-9H-pyrido[4′,3′:4,5]pyrrolo[2,3-d]pyrimidin-2-yl)amino)-3-pyridinyl)-1-piperazinyl)-2-oxoethyl acetate] | 0.6 µM
CC1CCN(c2cnc(Nc3ncc4c5ccncc5n(C5CCCC5)c4n3)cn2)C1 (stereo not drawn) [Example 88] | 0.477 µM
c1ncc2c(n1)c1cnc(Nc3ccc(N4CCNCC4)cn3)nc1n2C1CCCC1 [Example 59, 5-Cyclopentyl-N-(5-(1-piperazinyl)-2-pyridinyl)-5H-pyrimido[4′,5′:4,5]pyrrolo[2,3-d]pyrimidin-7-amine] | 0.015 µM
O=C1COC2(CCN(c3ccc(Nc4ncc5c6ccncc6n(C6CCCC6)c5n4)nn3)CC2)CN1 [Example 250, 9-(6-((9-cyclopentyl-9H-pyrido[4′,3′:4,5]pyrrolo[2,3-d]pyrimidin-2-yl)amino)-3-pyridazinyl)-1-oxa-4,9-diazaspiro[5.5]undecan-3-one] | 0.016 µM

Further lines, results first:

IC50 | SMILES
0.011 µM | c1cc2c3cnc(Nc4ccc(N5CCNCC5)cn4)nc3n(C3CCCCC3)c2cn1 [Example 23, (9-Cyclohexyl-9H-pyrido[4′,3′,4,5]pyrrolo[2,3-d]pyrimidin-2-yl)-(5-piperazin-1-yl-pyridin-2-yl)-amine]
0.003 µM | CC(C)n1c2cnccc2c2cnc(Nc3ccc(N4CCNCC4)cn3)nc21 [Example 159, 9-(1-methylethyl)-N-(5-(1-piperazinyl)-2-pyridinyl)-9H-pyrido[4′,3′:4,5]pyrrolo[2,3-d]pyrimidin-2-amine]
0.151 µM | CNC1CCN(c2ccc(Nc3ncc4c5ccncc5n(C[C@@H](C)O)c4n3)nn2)CC1 [Example 417]
0.066 µM | CC1(C)CN(c2ccc(Nc3ncc4c5ccncc5n([C@H]5CCC[C@H]5O)c4n3)nc2)CCN1 [Example 360]
0.218 µM | C[C@H](CO)n1c2cnccc2c2cnc(Nc3ccc(N4CCNC(C)(C)C4)nn3)nc21 [Example 388]
0.0044 µM | OCCN1CCN(c2ccc(Nc3ncc4c5ccncc5n(C5CCCC5)c4n3)nc2)CC1 [Example 191, 2-(4-(6-((9-Cyclopentyl-9H-pyrido[4′,3′:4,5]pyrrolo[2,3-d]pyrimidin-2-yl)amino)-3-pyridinyl)-1-piperazinyl)ethanol]
1.19 µM | CN(C)C1CCN(c2ccc(Nc3ncc4c5ccncc5n([C@H]5CCOC5)c4n3)nc2)CC1 [Example 394]
0.05 µM | C[C@H](CO)n1c2cnccc2c2cnc(Nc3ccc(N4CCC(N(C)C)CC4)cn3)nc21 [Example 376]
0.63 µM | CC[C@H](C)n1c2cnccc2c2cnc(Nc3ccc(N4CCC(N(C)C)CC4)nn3)nc21 [Example 327]
0.261 µM | CNC1CCN(c2ccc(Nc3ncc4c5ccncc5n([C@H](C)CO)c4n3)nc2)CC1 [Example 380]
0.077 µM | C[C@H](O)Cn1c2cnccc2c2cnc(Nc3ccc(N4CCNCC4)cn3)nc21 [Example 421]
0.0014 µM | CNC1CCN(c2ccc(Nc3ncc4c5ccncc5n(C5CCCC5)c4n3)nc2)CC1 [Example 75]
0.051 µM | CC[C@H](C)n1c2cnccc2c2cnc(Nc3ccc(N4CCNC(C)(C)C4)cn3)nc21 [Example 328]
0.002 µM | CC[C@H](C)n1c2cnccc2c2cnc(Nc3ccc(N4CC[C@@H](O)C4)cn3)nc21 [Example 336]
0.073 µM | CNC1CCN(c2ccc(Nc3ncc4c5ccncc5n(C[C@@H](C)O)c4n3)nc2)CC1 [Example 425]
0.3 µM | CNC1CCN(c2ccc(Nc3ncc4c5ccncc5n([C@H]5CCC[C@H]5O)c4n3)nc2)CC1 [Example 393]
0.0096 µM | CN(C)C1CCN(c2ccc(Nc3ncc4c5ccncc5n(C5CCCC5)c4n3)nc2)CC1 [Example 12]
0.284 µM | C[C@@H](CO)n1c2cnccc2c2cnc(Nc3ccc(N4CC[C@@H](O)C4)cn3)nc21 [Example 368]
